Patent publication US11623919B2, “Heterocyclic P2X7 antagonists” (AXXAM S.P.A., priority 2017, dated 2023)

Legend:
Assay in all cases: Screen Quest Fluo-8 No Wash Calcium Assay (Bz-ATP evoked Ca2+ influx, FLIPR)
Assay type in all cases: cell-based
[1] = target: T1, P2X7 receptor (Rattus norvegicus, UniProt Q64663); conditions: rP2X7; HEK-293 cells stably transfected with P2X7 receptor, Bz-ATP at EC80, Fluo-8 NW; potency ranges A-D
T1 construct: rP2X7 (IC50; nM); other: rP2X7; HEK-293 cells stably transfected with P2X7 receptor, Bz-ATP at EC80, Fluo-8 NW; potency
T1 sequence (Q64663 1-595): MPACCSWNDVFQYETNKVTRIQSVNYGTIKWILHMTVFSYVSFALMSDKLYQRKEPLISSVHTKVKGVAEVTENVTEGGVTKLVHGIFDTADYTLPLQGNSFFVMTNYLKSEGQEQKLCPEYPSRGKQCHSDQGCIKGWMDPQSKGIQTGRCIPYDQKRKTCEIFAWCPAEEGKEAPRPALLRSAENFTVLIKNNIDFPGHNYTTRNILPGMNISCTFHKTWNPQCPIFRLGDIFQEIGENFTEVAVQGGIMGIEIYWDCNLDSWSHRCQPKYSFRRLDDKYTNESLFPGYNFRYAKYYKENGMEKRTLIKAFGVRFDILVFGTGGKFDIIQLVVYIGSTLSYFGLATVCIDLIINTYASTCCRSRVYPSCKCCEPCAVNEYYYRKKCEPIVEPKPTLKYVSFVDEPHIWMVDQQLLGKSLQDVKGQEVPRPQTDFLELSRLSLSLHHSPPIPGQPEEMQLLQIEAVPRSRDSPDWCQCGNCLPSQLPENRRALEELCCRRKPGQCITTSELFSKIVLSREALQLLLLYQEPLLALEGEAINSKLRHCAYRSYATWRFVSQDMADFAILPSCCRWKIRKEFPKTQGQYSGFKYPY
Outline: (§1)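 HEK-293 cells stably expressing P2X7 were loaded with Fluo-8 NW for 1 h at RT, then given compound, and 5 min later Bz-ATP at EC80. Fluorescence was read by FLIPR in low divalent cation buffer (0.3 mM Ca2+, 0 mM Mg2+). IC50 came from percent inhibition relative to reference antagonist A438079.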

[2] = target: T2, P2X7 receptor (Mus musculus, UniProt Q9Z1M0); conditions: mP2X7; HEK-293 cells stably transfected with P2X7 receptor, Bz-ATP at EC80, Fluo-8 NW; potency ranges A-D
T2 construct: mP2X7 (IC50; nM); other: mP2X7; HEK-293 cells stably transfected with P2X7 receptor, Bz-ATP at EC80, Fluo-8 NW; potency
T2 sequence (Q9Z1M0 1-595): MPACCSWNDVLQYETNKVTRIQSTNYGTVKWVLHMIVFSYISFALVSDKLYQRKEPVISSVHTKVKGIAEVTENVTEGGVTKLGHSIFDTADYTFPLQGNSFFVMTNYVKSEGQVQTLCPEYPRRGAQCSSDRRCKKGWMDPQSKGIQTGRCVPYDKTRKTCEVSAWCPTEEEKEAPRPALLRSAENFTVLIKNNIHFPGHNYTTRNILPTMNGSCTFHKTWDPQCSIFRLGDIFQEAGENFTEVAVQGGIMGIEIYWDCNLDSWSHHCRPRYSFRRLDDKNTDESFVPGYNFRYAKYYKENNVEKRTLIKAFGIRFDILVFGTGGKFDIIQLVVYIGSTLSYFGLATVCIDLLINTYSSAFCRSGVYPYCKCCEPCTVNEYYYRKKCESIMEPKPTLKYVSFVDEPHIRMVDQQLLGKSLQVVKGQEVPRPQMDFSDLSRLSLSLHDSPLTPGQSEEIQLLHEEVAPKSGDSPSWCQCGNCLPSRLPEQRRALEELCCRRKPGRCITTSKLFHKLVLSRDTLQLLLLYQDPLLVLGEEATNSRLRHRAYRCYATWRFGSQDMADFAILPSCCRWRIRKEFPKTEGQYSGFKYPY
Outline: as §1

[3] = target: T3, P2X7 receptor (Homo sapiens, UniProt Q99572); design: hP2X7 (IC50; nM); other: hP2X7; HEK-293 cells stably transfected with P2X7 receptor, Bz-ATP at EC80, Fluo-8 NW; potency; conditions: hP2X7; HEK-293 cells stably transfected with P2X7 receptor, Bz-ATP at EC80, Fluo-8 NW; potency ranges A-D
T3 sequence (Q99572 1-595): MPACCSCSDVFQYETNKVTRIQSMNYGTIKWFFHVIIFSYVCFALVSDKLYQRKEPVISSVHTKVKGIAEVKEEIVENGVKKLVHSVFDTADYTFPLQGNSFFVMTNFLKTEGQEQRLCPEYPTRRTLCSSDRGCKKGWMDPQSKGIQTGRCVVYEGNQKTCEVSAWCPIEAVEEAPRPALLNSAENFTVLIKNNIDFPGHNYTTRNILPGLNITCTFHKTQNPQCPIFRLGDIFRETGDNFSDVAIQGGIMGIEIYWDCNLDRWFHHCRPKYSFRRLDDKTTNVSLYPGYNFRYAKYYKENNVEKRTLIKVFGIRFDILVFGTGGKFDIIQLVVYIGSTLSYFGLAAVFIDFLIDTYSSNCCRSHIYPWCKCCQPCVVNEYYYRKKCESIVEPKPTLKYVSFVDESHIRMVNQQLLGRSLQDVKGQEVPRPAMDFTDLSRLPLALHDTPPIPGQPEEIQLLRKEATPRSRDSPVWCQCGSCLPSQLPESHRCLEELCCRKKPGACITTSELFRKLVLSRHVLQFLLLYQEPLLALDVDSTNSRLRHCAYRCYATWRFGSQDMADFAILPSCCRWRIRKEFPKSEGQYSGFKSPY
Outline: as §1

SMILES | IC50 [1] | IC50 [2] | IC50 [3]
COc1ccc(Cc2noc(=O)n2CC2CCC(F)(F)CC2)cc1 [Example 154, 4-[(4,4-difluorocyclohexyl)methyl]-3-[(4-methoxyphenyl)methyl]-4,5-dihydro-1,2,4-oxadiazol-5-one] | 1000 to 10000 nM | 1000 to 10000 nM | 1000 to 10000 nM
O=c1onc(Cc2cccc(C(F)(F)F)c2Cl)n1CC1CCC(F)(F)CC1 [Example 155, 3-{[2-chloro-3-(trifluoromethyl)phenyl]methyl}-4-[(4,4-difluorocyclohexyl)methyl]-4,5-dihydro-1,2,4-oxadiazol-5-one] | 200 to 1000 nM | 200 to 1000 nM | < 200 nM
O=c1onc(Cc2cccc(Cl)c2Cl)n1CC1CCC(F)(F)CC1 [Example 156, 3-[(2,3-dichlorophenyl)methyl]-4-[(4,4-difluorocyclohexyl)methyl]-4,5-dihydro-1,2,4-oxadiazol-5-one] | < 200 nM | 200 to 1000 nM | < 200 nM
O=c1onc(Cc2ccccc2C(F)(F)F)n1CC1CCC(F)(F)CC1 [Example 157, 4-[(4,4-difluorocyclohexyl)methyl]-3-{[2-(trifluoromethyl)phenyl]methyl}-4,5-dihydro-1,2,4-oxadiazol-5-one] | < 200 nM | 200 to 1000 nM | < 200 nM
O=c1onc(Cc2ccccc2Cl)n1CC1CCC(F)(F)CC1 [Example 158, 3-[(2-chlorophenyl)methyl]-4-[(4,4-difluorocyclohexyl)methyl]-4,5-dihydro-1,2,4-oxadiazol-5-one] | < 200 nM | 200 to 1000 nM | < 200 nM
O=c1onc(Cc2ccc(Cl)cc2Cl)n1CC1CCC(F)(F)CC1 [Example 159, 3-[(2,4-dichlorophenyl)methyl]-4-[(4,4-difluorocyclohexyl)methyl]-4,5-dihydro-1,2,4-oxadiazol-5-one] | < 200 nM | 200 to 1000 nM | < 200 nM
COc1cccc(Cc2noc(=O)n2CC2CCC(F)(F)CC2)c1 [Example 160, 4-[(4,4-difluorocyclohexyl)methyl]-3-[(3-methoxyphenyl)methyl]-4,5-dihydro-1,2,4-oxadiazol-5-one] | 200 to 1000 nM | 1000 to 10000 nM | 200 to 1000 nM
O=c1onc(Cc2ccccc2)n1CC1CCC(F)(F)CC1 [Example 161, 3-benzyl-4-[(4,4-difluorocyclohexyl)methyl]-4,5-dihydro-1,2,4-oxadiazol-5-one] | 200 to 1000 nM | 1000 to 10000 nM | 200 to 1000 nM
O=c1onc(Cc2ccc(F)cc2Cl)n1CC1CCC(F)(F)CC1 [Example 162, 3-[(2-chloro-4-fluorophenyl)methyl]-4-[(4,4-difluorocyclohexyl)methyl]-4,5-dihydro-1,2,4-oxadiazol-5-one] | > 10000 nM | > 10000 nM | > 10000 nM
CC(c1ccc(F)cc1)n1c(CC2CCCCC2)noc1=O (stereo not drawn) [Example 163, 3-(cyclohexylmethyl)-4-[1-(4-fluorophenyl)ethyl]-4,5-dihydro-1,2,4-oxadiazol-5-one] | 1000 to 10000 nM | 1000 to 10000 nM | 1000 to 10000 nM
CC(c1ccc(F)cc1)n1c(CC2CCC(F)(F)CC2)noc1=O (stereo not drawn) [Example 164, 3-[(4,4-difluorocyclohexyl)methyl]-4-[1-(4-fluorophenyl)ethyl]-4,5-dihydro-1,2,4-oxadiazol-5-one] | 1000 to 10000 nM | 1000 to 10000 nM | 1000 to 10000 nM
O=c1onc(CC2CCC(F)(F)CC2)n1Cc1ccccc1F [Example 165, 3-[(4,4-difluorocyclohexyl)methyl]-4-[(2-fluorophenyl)methyl]-4,5-dihydro-1,2,4-oxadiazol-5-one] | < 200 nM | 200 to 1000 nM | 200 to 1000 nM
O=c1onc(CC2CCC(F)(F)CC2)n1Cc1ccc(C(F)(F)F)cc1 [Example 166, 3-[(4,4-difluorocyclohexyl)methyl]-4-{[4-(trifluoromethyl)phenyl]methyl}-4,5-dihydro-1,2,4-oxadiazol-5-one] | 1000 to 10000 nM | 1000 to 10000 nM | 1000 to 10000 nM
O=c1onc(CC2CCC(F)(F)CC2)n1Cc1cccc(C(F)(F)F)c1Cl [Example 167, 4-{[2-chloro-3-(trifluoromethyl)phenyl]methyl}-3-[(4,4-dffluorocyclohexyl)methyl]-4,5-dihydro-1,2,4-oxadiazol-5-one] | 1000 to 10000 nM | 1000 to 10000 nM | > 10000 nM
O=c1onc(CC2CCC(F)(F)CC2)n1Cc1ccc(C(F)(F)F)o1 [Example 168, 3-[(4,4-difluorocyclohexyl)methyl]-4-{[5-(trifluoromethyl)furan-2-yl]methyl}-4,5-dihydro-1,2,4-oxadiazol-5-one] | 200 to 1000 nM | 200 to 1000 nM | 1000 to 10000 nM
Cc1cc(Cn2c(CC3CCC(F)(F)CC3)noc2=O)no1 [Example 169, 3-[(4,4-difluorocyclohexyl)methyl]-4-[(5-methyl-1,2-oxazol-3-yl)methyl]-4,5-dihydro-1,2,4-oxadiazol-5-one] | 1000 to 10000 nM | > 10000 nM | > 10000 nM
O=c1onc(CC2CCC(F)(F)CC2)n1Cc1ccccc1Cl [Example 170, 4-[(2-chlorophenyl)methyl]-3-[(4,4-difluorocyclohexyl)methyl]-4,5-dihydro-1,2,4-oxadiazol-5-one] | < 200 nM | 200 to 1000 nM | < 200 nM
Cc1cc(F)ccc1Cn1c(CC2CCC(F)(F)CC2)noc1=O [Example 171, 3-[(4,4-difluorocyclohexyl)methyl]-4-[(4-fluoro-2-methylphenyl)methyl]-4,5-dihydro-1,2,4-oxadiazol-5-one] | 200 to 1000 nM | 1000 to 10000 nM | 1000 to 10000 nM
O=c1onc(CC2CCC(F)(F)CC2)n1CCc1ccccc1 [Example 172, 3-[(4,4-difluorocyclohexyl)methyl]-4-(2-phenylethyl)-4,5-dihydro-1,2,4-oxadiazol-5-one] | 1000 to 10000 nM | > 10000 nM | > 10000 nM
O=c1onc(Cc2c(F)cccc2Cl)n1CC1CC2C(C1)C2(F)F (stereo not drawn) [Example 173, 3-[(2-chloro-6-fluorophenyl)methyl]-4-({6,6-difluorobicyclo[3.1.0]-hexan-3-yl}methyl)-4,5-dihydro-1,2,4-oxadiazol-5-one] | < 200 nM | 200 to 1000 nM | < 200 nM
Cn1c(Cc2c(F)cccc2Cl)noc1=O [Example 174, 3-[(2-chloro-6-fluorophenyl)methyl]-4-methyl-4,5-dihydro-1,2,4-oxadiazol-5-one] | > 10000 nM | > 10000 nM | > 10000 nM
